“Also recorded” adds a separate entry of the source.

3 compounds from patent US20240424036A1, “COMPOSITIONS AND METHODS FOR PREVENTING OR TREATING INCONTINENCE, OVERACTIVE BLADDER, OR MENSTRUAL CRAMPING” (priority 2018, published 2024) can be followed below.

In one test the test system is L. crispatus. Description: Growth of L. crispatus in AU supplemented with ATP. In kind it is cell-based, Lactobacillus crispatus. Conditions: AU supplemented with different concentrations of ATP, FIG. 8E. As to the method:
As depicted in FIG. 8D, the amount of ATP remaining when L. crispatus was grown in AU supplemented with 0.1 mM ATP for 24 hours was 22.89±0.98 uM, which was less than half the control (49.2±6.3 uM) (P≤0.0005). To further investigate ATP reduction, L. crispatus was cultured in AU supplemented with different concentrations of ATP (FIG. 8E), as well as in AU supplemented with 50% E. coli supernatant (FIG. 8G), and 25% G. vaginalis supernatant (FIGS. 8H and 8J), as potential natural sources of ATP. The growth of L. crispatus was increased by increasing ATP concentration (FIG. 8E), including that emanating from the E. coli and G. vaginalis supernatants (FIGS. 8H and 8J). […] In FIGS. 8A-8L, statistical significance was determined using Tukey's test, p≤0.05, and is designated with three asterisks (p less than 0.05*, 0.01**, 0.001***).
For investigation the subtherapeutic concentration of ciprofloxacin, the L. crispatus was grown in deMan, Rogosa, Sharpe media (MRS, Difco, MD). Growth curves for these bacteria were generated using a plate reader (Eon Biotek, VT) at OD600 and 37° C. to determine exponential phase.

Test [1] has as its system primary myofibroblast cells. Description: Myofibroblast populated collagen gel contraction assay. In kind it is cell-based. As to the method: Bacterial supernatants from E. coli, L. crispatus, and L. gasseri strain KE-1 (ATCC Designation No. PTA-125162) were added to a myofibroblast populated collagen matrix, both from pure culture and mixtures with DMEM with 2% FBS. In addition, GABA, ATP and LPS were included as controls. The collagen contraction assay using primary myofibroblast cells seeded on top of a collagen matrix was tested against the bacterial products. […] As depicted in FIG. 12C, pure ATP caused contraction of myofibroblasts in the first hour (30.37%) and continued for 24 hours (68.56%). […] Based on previous literature, it is believed that the contraction maybe caused by E. coli was due to LPS.
Bladder epithelial cells (5637-ATCC HTB-9) were maintained in RPMI 1640 (Roswell-Park Memorial Institute media—Thermo Fisher Scientific, MA) supplemented with 10% fetal bovine serum (FBS) (Thermo Fisher Scientific, Ma.) and 2 mM L-glutamine (Thermo Fisher Scientific, MA.) at 37° C. and 5% CO2. The media was changed every 48 hours or more regularly if the cells were confluent (90%-100%), after washing by 1×PBS and trypsinization by 0.25% Trypsin-EDTA (1×) (Gibco), with the ratio of 1 to 10. Primary myofibroblast cells were extracted from the palmar fascia during surgery from normal tissue. Primary cultures were maintained in DMEM with 10% fetal bovine serum (FBS; Life Technologies, Carlsbad, CA, USA), 1% L-glutamine (Life Technologies) and 1% antibiotic-antimycotic solution (Life Technologies) at 37° C. in 5% CO2. All primary cell lines were used up to a maximum of four passages, after which they were discarded.

Test [2] deals with E. coli. Description: Growth of E. coli supplemented with ATP. Conditions: FIG. 8F. The test is classed as cell-based, Escherichia coli.
A further test relates to 5637 cells. Kind of test: Fluorescent microscopy of calcium influx of 5637 cells (FLUO-4). The test is classed as cell-based, human. As to the method: Supernatants were collected from cultures grown overnight (24 hours) at 37° C. after reaching stationary phase. Cultures were pelleted by centrifugation at 5000 rpm (Eppendorf Centrifuge 5804 R) for 15 minutes. The supernatant was pH adjusted to 7.0 with 0.1 Molar HCL or NaOH, filter sterilized with 0.22 um sterile syringe filter, and aliquoted and stored at −20 C° until use. In the case of E. coli and E. faecalis, overnight cultures were diluted 1:100 with fresh artificial urine, returned to incubation at 37° C. and sampled at T=1, 2, 3, 4, 5 and 24 hours for testing. […]
The influx of calcium was measured using the FLUO-4 DIRECT™ Calcium Assay kit (Invitrogen™, CA). […] Cells were counted by using the INVITROGEN COUNTESS AUTOMATED CELL COUNTER (Thermo Fisher Scientific, MA.) per the manufacturers' instructions. […] The effect of treatments was assessed using a NIKON EPIFLUORESCENCE TS2R scope at 10× magnification at 494 nm for excitation and 516 nm for emission for 60 seconds. The image intensity was calculated using ImageJ and is indicative of Ca^2+ influx into the urothelial cell's cytoplasmic space from either the extracellular environment or intracellular Ca^2+ stores (referred to as Ca^2+ influx).

Test [3] has as its system E. coli. Description: ATP release by E. coli at subtherapeutic ciprofloxacin concentrations. The test is classed as cell-based, Escherichia coli. The conditions noted are these: concentrations below the MIC of 0.25, 0.125, 0.0625 ug/mL, FIG. 9B. As to the method: Further testing was completed on E. coli and its release of ATP. Testing was conducted to determine the minimum inhibitory concentration (MIC) and subtherapeutic concentrations of exposure to the antibiotic ciprofloxacin (Cip).
The release of ATP from bacterial supernatants was measured using an ATP colorimetric/fluorometric assay kit (Biovision Inc, CA). Samples and reagents were prepared according to the protocol provided. The OD numbers were taken by the BIOTEK EON microplate reader. A luminescent assay kit BACTITER-GLO™ Microbial Cell Viability Assay, G8230) was used to quantify the amount of extracellular ATP released by the bacteria into the supernatant and released by the cells into the cell media. The SYNERGY™ H4 Hybrid Multi-Mode Microplate Reader was used to quantify the amount of extracellular ATP.

On to `Nc1ncnc2c1ncn2[C@@H]1O[C@H](COP(=O)(O)OP(=O)(O)OP(=O)(O)O)[C@@H](O)[C@H]1O` [ATP, adenosine triphosphate], for which the “growth of L. crispatus” value in the test on L. crispatus is recorded as “increased”. The contraction of myofibroblasts in test [1] (after 24 hours, sample alone, FIGS. 12A-12C) turned out to be 68.56%; in test [1] (after five hours of exposure, FIG. 12E), 57.5%; in test [1] (in the first hour, FIG. 12C), 30.37%. In addition, in the test with E. coli [2], the “growth of E. coli” value is “somewhat inhibitory effect”.

Consider `NCCCC(=O)O` [GABA, γ-aminobutyric acid], for which the “effect on stimulation of calcium influx caused by ATP” value in the test on 5637 cells (AU containing 1 uM GABA mixed with ATP in AU, FIG. 10A) is “reduce the stimulation of calcium influx”. Besides, the “effect on stimulation of calcium influx caused by E. coli supernatant” value with 5637 cells (GABA mixed with E. coli supernatant, FIG. 10B) was “inhibit the stimulation of calcium influx”. Further, the contraction of myofibroblasts result in test [1] (GABA alone, FIG. 12C) was “did not cause contraction”. Besides, the “effect on contraction caused by E. coli” value in test [1] (GABA with E. coli, FIG. 12D) is “inhibited contraction; also recorded: could inhibit contraction”.

On to `O=C(O)c1cn(C2CC2)c2cc(N3CCNCC3)c(F)cc2c1=O` [ciprofloxacin], for which the “ATP released by E. coli” value in the test on E. coli [3] is given as “up to 0.0261±0.003 uM”.
